Measured values from patent US6914045B2, “Glycopeptide antibiotics” (Wyeth Holdings Corporation, priority 2001, dated 2005).
In brackets after ≈: the same amount, converted by molar mass.

How the values were obtained:
Test in all cases: in vitro antibacterial evaluation, MIC by broth dilution
Assay type in all cases: cell-based
[1] = test system: Enterococcus sp.; settings: broth dilution, 18 hours at 35° C.; for MIC Enterococcus faecalis (ATCC 29212): strain ATCC 29212; for MIC Enterococcus faecalis (GC 2242): strain GC 2242; for MIC Enterococcus faecium (GC 2243): strain GC 2243; for MIC Enterococcus faecalis (GC 2691): strain GC 2691; for MIC Enterococcus faecalis (GC 3059): strain GC 3059; for MIC Enterococcus faecalis (GC 4552): strain GC 4552; for MIC Enterococcus faecalis (GC 4553): strain GC 4553; for MIC Enterococcus faecalis (GC 4554): strain GC 4554; for MIC Enterococcus faecium (GC 4556): strain GC 4556; for MIC Enterococcus faecium (GC 4557): strain GC 4557; for MIC Enterococcus avium (GC 4558): strain GC 4558; for MIC Enterococcus faecalis (GC 6189): strain GC 6189
How it was run: (§1)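 MIC, the lowest antibiotic concentration preventing growth, was read across 64-0.06 μg/mL with 5×10^5 CFU/mL inoculum. Method followed NCCLS M7-A2 broth dilution using Mueller-Hinton II; Gram-positive strains covered recent methicillin-, penicillin- and/or vancomycin-resistant clinical isolates.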

[2] = test system: Escherichia coli
How it was run: as §1

[3] = test system: Staphylococcus sp.; settings: broth dilution, 18 hours at 35° C.; for MIC Staphylococcus aureus (GC 1131): strain GC 1131
How it was run: as §1

[4] = test system: Streptococcus sp.; settings: broth dilution, 18 hours at 35° C.; for MIC Streptococcus pneumoniae (ATCC 6301): strain ATCC 6301; for MIC Streptococcus pneumoniae (GC 1894): strain GC 1894; for MIC Streptococcus pyogenes (GC 4563): strain GC 4563; for MIC Streptococcus agalactiae (GC 4564): strain GC 4564; for MIC Streptococcus pneumoniae (GC 4565): strain GC 4565
How it was run: as §1

MIC Enterococcus faecalis (ATCC 29212) ([1]; inoculum 5×10^5 CFU/mL): 1 mg/L (≈ 0.672 µM)
MIC Enterococcus faecalis (GC 2242) ([1]; inoculum 5×10^5 CFU/mL): 2 mg/L (≈ 1.34 µM)
MIC Enterococcus faecium (GC 2243) ([1]; inoculum 5×10^5 CFU/mL): 2 mg/L (≈ 1.34 µM)
MIC Enterococcus faecalis (GC 2691) ([1]; inoculum 5×10^5 CFU/mL): 2 mg/L (≈ 1.34 µM)
MIC Enterococcus faecalis (GC 3059) ([1]; inoculum 5×10^5 CFU/mL): 2 mg/L (≈ 1.34 µM)
MIC Enterococcus faecalis (GC 4552) ([1]; inoculum 5×10^5 CFU/mL): 2 mg/L (≈ 1.34 µM)
MIC Enterococcus faecalis (GC 4553) ([1]; inoculum 5×10^5 CFU/mL): 2 mg/L (≈ 1.34 µM)
MIC Enterococcus faecalis (GC 4554) ([1]; inoculum 5×10^5 CFU/mL): 2 mg/L (≈ 1.34 µM)
MIC Enterococcus faecium (GC 4556) ([1]; inoculum 5×10^5 CFU/mL): 1 mg/L (≈ 0.672 µM)
MIC Enterococcus faecium (GC 4557) ([1]; inoculum 5×10^5 CFU/mL): 2 mg/L (≈ 1.34 µM)
MIC Enterococcus avium (GC 4558) ([1]; inoculum 5×10^5 CFU/mL): 1 mg/L (≈ 0.672 µM)
MIC Enterococcus faecalis (GC 6189) ([1]; inoculum 5×10^5 CFU/mL): 1 mg/L (≈ 0.672 µM)
MIC Enterococcus faecalis (ATCC 29212) [1]: 1 mg/L (≈ 0.672 µM)
MIC Enterococcus faecalis (GC 2242) [1]: 2 mg/L (≈ 1.34 µM)
MIC Enterococcus faecium (GC 2243) [1]: 2 mg/L (≈ 1.34 µM)
MIC Enterococcus faecalis (GC 2691) [1]: 2 mg/L (≈ 1.34 µM)
MIC Enterococcus faecalis (GC 3059) [1]: 2 mg/L (≈ 1.34 µM)
MIC Enterococcus faecalis (GC 4552) [1]: 2 mg/L (≈ 1.34 µM)
MIC Enterococcus faecalis (GC 4553) [1]: 2 mg/L (≈ 1.34 µM)
MIC Enterococcus faecalis (GC 4554) [1]: 2 mg/L (≈ 1.34 µM)
MIC Enterococcus faecium (GC 4556) [1]: 1 mg/L (≈ 0.672 µM)
MIC Enterococcus faecium (GC 4557) [1]: 2 mg/L (≈ 1.34 µM)
MIC Enterococcus avium (GC 4558) [1]: 1 mg/L (≈ 0.672 µM)
MIC Enterococcus faecalis (GC 6189) [1]: 1 mg/L (≈ 0.672 µM)
MIC Escherichia coli (ATCC 25922) ([2]; strain ATCC 25922, 18 hours at 35° C.): 32 mg/L (≈ 21.5 µM)
MIC Escherichia coli (GC 4559) ([2]; strain GC 4559, 18 hours at 35° C.): 16 mg/L (≈ 10.8 µM)
MIC Escherichia coli (GC 4560) ([2]; strain GC 4560, 18 hours at 35° C.): 0.5 mg/L (≈ 0.336 µM)
MIC Staphylococcus aureus (GC 1131) ([3]; inoculum 5×10^5 CFU/mL): 2 mg/L (≈ 1.34 µM)
MIC Staphylococcus aureus (ATCC 29213) ([3]; strain ATCC 29213): 1 mg/L (≈ 0.672 µM)
MIC Staphylococcus aureus (GC 1131) [3]: 2 mg/L (≈ 1.34 µM)
MIC Staphylococcus aureus (GC 3051) ([3]; strain GC 3051): 0.5 mg/L (≈ 0.336 µM)
MIC Staphylococcus aureus (GC 3053) ([3]; strain GC 3053): 1 mg/L (≈ 0.672 µM)
MIC Staphylococcus aureus (GC 4541) ([3]; strain GC 4541): 0.5 mg/L (≈ 0.336 µM)
MIC Staphylococcus aureus (GC 4542) ([3]; strain GC 4542): 0.5 mg/L (≈ 0.336 µM)
MIC Staphylococcus aureus-SMITH (GC 4543) ([3]; strain GC 4543): 0.5 mg/L (≈ 0.336 µM)
MIC Staphylococcus aureus (GC 4544) ([3]; strain GC 4544): 2 mg/L (≈ 1.34 µM)
MIC Staphylococcus aureus (GC 4545) ([3]; strain GC 4545): 2 mg/L (≈ 1.34 µM)
MIC Coagulase Negative Staphylococcus (GC 4547) ([3]; strain GC 4547): 2 mg/L (≈ 1.34 µM)
MIC Coagulase Negative Staphylococcus (GC 4548) ([3]; strain GC 4548): 0.5 mg/L (≈ 0.336 µM)
MIC Coagulase Negative Staphylococcus (GC 4549) ([3]; strain GC 4549): 0.25 mg/L (≈ 0.168 µM)
MIC Coagulase Negative Staphylococcus (GC 4551) ([3]; strain GC 4551): 0.5 mg/L (≈ 0.336 µM)
MIC Coagulase Negative Staphylococcus (GC 6257) ([3]; strain GC 6257): 0.5 mg/L (≈ 0.336 µM)
MIC Streptococcus pneumoniae (ATCC 6301) ([4]; inoculum 5×10^5 CFU/mL): <0.12 mg/L
MIC Streptococcus pneumoniae (GC 1894) ([4]; inoculum 5×10^5 CFU/mL): <0.12 mg/L
MIC Streptococcus pyogenes (GC 4563) ([4]; inoculum 5×10^5 CFU/mL): <0.12 mg/L
MIC Streptococcus agalactiae (GC 4564) ([4]; inoculum 5×10^5 CFU/mL): <0.12 mg/L
MIC Streptococcus pneumoniae (GC 4565) ([4]; inoculum 5×10^5 CFU/mL): <0.12 mg/L
MIC Streptococcus pneumoniae (ATCC 6301) [4]: <0.12 mg/L
MIC Streptococcus pneumoniae (GC 1894) [4]: <0.12 mg/L
MIC Streptococcus pyogenes (GC 4563) [4]: <0.12 mg/L
MIC Streptococcus agalactiae (GC 4564) [4]: <0.12 mg/L
MIC Streptococcus pneumoniae (GC 4565) [4]: <0.12 mg/L
Structure (SMILES): CC(c1ccccc1)C1NC(=O)CNC(=O)C(CO)NC(=O)C(C(O)C2CNC(=N)N2C2OC(CO)C(O)C(O)C2O)NC(=O)C(C(O)C2CNC(=N)N2)NC(=O)C(Cc2ccc(OC3OC(CO)C(OC4OC5COC(c6ccc(C(=O)c7ccccc7)cc6)OC5C(O)C4O)C(O)C3O)cc2)NC1=O (centres unmarked) [Example 173]
MIC Staphylococcus haemolyticus (GC 4546) ([3]; strain GC 4546): 1 mg/L (≈ 0.672 µM)
